{"source": "patent US8309586B2", "about": "“Glucokinase activators and pharmaceutical compositions containing the same as an active ingredient” (LG Life Sciences Ltd., priority 2007, dated 2012)"}
{"system": "Glucokinase known as hexokinase IV (human GK isoform 1, pancreas form and human GK isoform 2, liver form)", "assay": "Glucokinase enzymatic activity assay (G6PDH-coupled, NADH absorbance at 340 nm)", "format": "biochemical", "settings": "5 mM glucose, 1 mM ATP, 37 nM GK, 10 min at room temperature", "method_in_brief": "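His-tagged human GK isoform 1 (pancreas) or 2 (liver), E. coli-expressed and Ni-purified, 37 nM, with 5 mM glucose, 1 mM ATP, 1 mM NAD and G6PDH in 25 mM Hepes/KCl, 2 mM MgCl2, 1 mM DTT. Ran 10 min at room temperature, read as NADH at 340 nm. AC1.5 is the compound concentration giving 1.5-fold activity.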", "units": {"AC1.5 (the compound concentration at which the enzymatic activity is increased by 1.5 times)": "nM"}}
{"smiles": "Fc1cc(NC2CCCC2)c2[nH]c(C3=N[C@H](CCN4CCOCC4)CS3)cc2c1", "note": "[Example 126, cyclopentyl-{5-fluoro-2-[(R)-4-(2-morpholin-4-yl-ethyl)-4,5-dihydro-thiazol-2-yl]-1H-indol-7-yl}-amine]", "AC1.5 (the compound concentration at which the enzymatic activity is increased by 1.5 times)": 20}
{"smiles": "O=C(c1ccco1)N1CCN(CC[C@@H]2CSC(c3cc4cc(Cl)cc(NC5CCOCC5)c4[nH]3)=N2)CC1", "note": "[Example 121, [4-(2-{(R)-2-[5-chloro-7-(tetrahydro-pyran-4-ylamino)-1H-indol-2-yl]-4,5-dihydro-thiazol-4-yl}-ethyl)-piperazin-1-yl]-furan-2-yl-methanone]", "AC1.5 (the compound concentration at which the enzymatic activity is increased by 1.5 times)": 40}
{"smiles": "OC[C@@H]1CSC(c2cc3cccc(NC4CCOC4)c3[nH]2)=N1", "note": "(stereo partly drawn) [Example 3, {(R)-2-[7-(tetrahydro-furan-3-ylamino)-1H-indol-2-yl]-4,5-dihydro-thiazol-4-yl}-methanol]", "AC1.5 (the compound concentration at which the enzymatic activity is increased by 1.5 times)": 184}
{"smiles": "OC[C@@H]1CSC(c2cc3cc(Oc4cccnc4)cc(NC4CCCC4)c3[nH]2)=N1", "note": "[Example 13, {(R)-2-[7-cyclopentylamino-5-(pyridin-3-yloxy)-1H-indol-2-yl]-4,5-dihydro-thiazol-4-yl}-methanol]", "AC1.5 (the compound concentration at which the enzymatic activity is increased by 1.5 times)": 12}
{"smiles": "OC[C@@H]1CSC(c2cc3cc(Cn4cccn4)cc(NC4CCCC4)c3[nH]2)=N1", "note": "[Example 21, [(R)-2-[7-cyclopentylamino-5-pyrazol-1-ylmethyl-1H-indol-2-yl]-4,5-dihydro-thiazol-4-yl}-methanol]", "AC1.5 (the compound concentration at which the enzymatic activity is increased by 1.5 times)": 16}
{"smiles": "CCS(=O)(=O)N1CCN(CC[C@@H]2CSC(c3cc4cc(Cl)cc(NC5CCCC5)c4[nH]3)=N2)CC1", "note": "[Example 98, (5-chloro-2-{(R)-4-[2-(4-ethanesulfonyl-piperazin-1-yl)-ethyl]-4,5-dihydro-thiazol-2-yl}-1H-indol-7-yl)-cyclopentyl-amine]", "AC1.5 (the compound concentration at which the enzymatic activity is increased by 1.5 times)": 7}
{"smiles": "O=S1(=O)CCN(CC[C@@H]2CSC(c3cc4cc(F)cc(NC5CCOCC5)c4[nH]3)=N2)CC1", "note": "[Example 137, (2-{(R)-4-[2-(1,1-dioxo-thiomorpholin-4-yl)-ethyl]-4,5-dihydro-thiazol-2-yl}-5-fluoro-1H-indol-7-yl)-(tetrahydropyran-4-yl)-amine]", "AC1.5 (the compound concentration at which the enzymatic activity is increased by 1.5 times)": 23}
{"smiles": "OC[C@@H]1CSC(c2cc3cc(F)cc(NC4CCOCC4)c3[nH]2)=N1", "note": "[Example 6, {(R)-2-[5-fluoro-7-(tetrahydro-pyran-4-ylamino)-1H-indol-2-yl]-4,5-dihydro-thiazol-4-yl}-methanol]", "AC1.5 (the compound concentration at which the enzymatic activity is increased by 1.5 times)": 31}
{"smiles": "OC[C@@H]1CSC(c2cc3cc(Br)cc(NC4CCCC4)c3[nH]2)=N1", "note": "[Example 10, [(R)-2-(5-bromo-7-cyclopentylamino-1H-indol-2-yl)-4,5-dihydro-thiazol-4-yl]-methanol]", "AC1.5 (the compound concentration at which the enzymatic activity is increased by 1.5 times)": 6}
{"smiles": "CCOC(=O)CC[C@@H]1CSC(c2cc3cc(OCC)cc(NC4CCCC4)c3[nH]2)=N1", "note": "[Example 166, 3-[(R)-2-(7-cyclopentylamino-5-ethoxy-1H-indol-2-yl)-4,5-dihydro-thiazol-4-yl]-propionic acid ethyl ester]", "AC1.5 (the compound concentration at which the enzymatic activity is increased by 1.5 times)": 43}
{"smiles": "c1cc(NC2CCCC2)c2[nH]c(C3=N[C@H](Cc4nc(N5CCCCC5)no4)CS3)cc2c1", "note": "[Example 173, cyclopentyl-{2-[(R)-4-(3-piperidin-1-yl-[1,2,4]oxadiazol-5-ylmethyl)-4,5-dihydro-thiazol-2-yl]-1H-indol-7-yl}-amine]", "AC1.5 (the compound concentration at which the enzymatic activity is increased by 1.5 times)": 114}
{"smiles": "O=C(CO)N1CCN(CC[C@@H]2CSC(c3cc4cc(F)cc(NC5CCCC5)c4[nH]3)=N2)CC1", "note": "[Example 131, 1-(4-{2-[(R)-2-(7-cyclopentylamino-5-fluoro-1H-indol-2-yl)-4,5-dihydro-thiazol-4-yl]-ethyl}-piperazin-1-yl)-2-hydroxy-ethanone]", "AC1.5 (the compound concentration at which the enzymatic activity is increased by 1.5 times)": 10}
{"smiles": "CS(=O)(=O)c1ccc(Oc2cc(NC3CCCC3)c3[nH]c(C4=N[C@H](CC(=O)O)CS4)cc3c2)cc1", "note": "[Example 64, {(R)-2-[7-cyclopentylamino-5-(4-methanesulfonyl-phenoxy)-1H-indol-2-yl]-4,5-dihydro-thiazol-4-yl}-acetic acid]", "AC1.5 (the compound concentration at which the enzymatic activity is increased by 1.5 times)": 17}
{"smiles": "O=C(O)C[C@@H]1CSC(c2cc3cc(Cl)cc(NC4CCOCC4)c3[nH]2)=N1", "note": "[Example 31, {(R)-2-[5-chloro-7-(tetrahydro-pyran-4-ylamino)-1H-indol-2-yl]-4,5-dihydro-thiazol-4-yl}-acetic acid]", "AC1.5 (the compound concentration at which the enzymatic activity is increased by 1.5 times)": 16}
{"smiles": "COc1cc(NC2CCCC2)c2[nH]c(C3=N[C@H](CO)CS3)cc2c1", "note": "[Example 12, [(R)-2-(7-cyclopentylamino-5-methoxy-1H-indol-2-yl)-4,5-dihydro-thiazol-4-yl]-methanol]", "AC1.5 (the compound concentration at which the enzymatic activity is increased by 1.5 times)": 25}
{"smiles": "CCOC(=O)CC[C@@H]1CSC(c2cc3cc(Cl)cc(NC4CCCC4)c3[nH]2)=N1", "note": "[Example 148, 3-[(R)-2-(5-chloro-7-cyclopentylamino-1H-indol-2-yl)-4,5-dihydro-thiazol-4-yl]propionic acid ethyl ester]", "AC1.5 (the compound concentration at which the enzymatic activity is increased by 1.5 times)": 12}
{"smiles": "CC(=O)N1CCN(CC[C@@H]2CSC(c3cc4cc(Cl)cc(NC5CCCC5)c4[nH]3)=N2)CC1", "note": "[Example 97, 1-(4-{2-[(R)-2-(5-chloro-7-cyclopentylamino-1H-indol-2-yl)-4,5-dihydro-thiazol-4-yl]-ethyl}-piperazin-1-yl)-ethanone]", "AC1.5 (the compound concentration at which the enzymatic activity is increased by 1.5 times)": 6}
{"smiles": "COC(=O)C[C@@H]1CSC(c2cc3cc(COc4ccccc4)cc(NC4CCCC4)c3[nH]2)=N1", "note": "[Example 65, [(R)-2-(7-cyclopentylamino-5-phenoxymethyl-1H-indol-2-yl)-4,5-dihydro-thiazol-4-yl]-acetic acid methyl ester]", "AC1.5 (the compound concentration at which the enzymatic activity is increased by 1.5 times)": 23}
{"smiles": "CN(C)C1CCN(CC[C@@H]2CSC(c3cc4cc(Cl)cc(NC5CCCC5)c4[nH]3)=N2)C1", "note": "(stereo partly drawn) [Example 103, (5-chloro-2-{(R)-4-[2-(3-dimethylamino-pyrrolidin-1-yl)-ethyl]-4,5-dihydro-thiazol-2-yl}-1H-indol-7-yl)-cyclopentyl-amine]", "AC1.5 (the compound concentration at which the enzymatic activity is increased by 1.5 times)": 16}
{"smiles": "CC(=O)N1CCN(CC[C@@H]2CSC(c3cc4cc(F)cc(NC5CCCC5)c4[nH]3)=N2)CC1", "note": "[Example 125, 1-(4-{2-[(R)-2-(7-cyclopentylamino-5-fluoro-1H-indol-2-yl)-4,5-dihydro-thiazol-4-yl]-ethyl}-piperazin-1-yl)-ethanone]", "AC1.5 (the compound concentration at which the enzymatic activity is increased by 1.5 times)": 23}
{"smiles": "COC(=O)C[C@@H]1CSC(c2cc3cc(Cl)cc(NC4CCCC4)c3[nH]2)=N1", "note": "[Example 26, [(R)-2-(5-chloro-7-cyclopentylamino-1H-indol-2-yl)-4,5-dihydro-thiazol-4-yl]acetic acid methyl ester]", "AC1.5 (the compound concentration at which the enzymatic activity is increased by 1.5 times)": 7}
{"smiles": "Cc1cc(NC2CCC(=O)CC2)c2[nH]c(C3=N[C@H](CC(=O)O)CS3)cc2c1", "note": "[Example 63, {(R)-2-[5-methyl-7-(4-oxo-cyclohexylamino)-1H-indol-2-yl]-4,5-dihydro-thiazol-4-yl}-acetic acid]", "AC1.5 (the compound concentration at which the enzymatic activity is increased by 1.5 times)": 119}
